Test results published in ChEMBL document CHEMBL3351233, “Design, stereoselective synthesis, configurational stability and biological activity of 7-chloro-9-(furan-3-yl)-2,3,3a,4-tetrahydro-1H-benzo[e]pyrrolo[2,1-c][1,2,4]thiadiazine 5,5-dioxide” (Bioorg Med Chem, 2014).

Columns and labels:
Rattus norvegicus [1] = species: Rattus norvegicus; assay: Positive allosteric modulator activity at AMPA receptor in 7 days old Sprague-Dawley rat cerebellar granule neurons assessed as potentiation of kainite-evoked current at 10 uM by whole cell patch clamp technique
Rattus norvegicus [2] = species: Rattus norvegicus; assay: Positive allosteric modulator activity at AMPA receptor in 7 days old Sprague-Dawley rat cerebellar granule neurons assessed as potentiation of 5-Will-evoked current at 10 uM by whole cell patch clamp technique
[3] = Chemical stability of the compound in water/acetonitrile mobile phase by chromatography; format: physicochemical; details: buffer

With CC1Nc2ccc(Cl)cc2S(=O)(=O)N1 (stereo not drawn) as the compound, how does the Activity (Rattus norvegicus [1]) read?
The Activity was 8%.

What about the Activity (Rattus norvegicus [2]) of the same compound?
Its Activity is 10%.

For O=S1(=O)N[C@H]2CCCN2c2c(-c3ccoc3)cc(Cl)cc21, which Activity (Rattus norvegicus [1]) is on record?
Its Activity is 12%.

And the Activity (Rattus norvegicus [2])?
The Activity was 122%.

Which results are given for O=S1(=O)NC2CCCN2c2c(-c3ccoc3)cc(Cl)cc21 (racemic)?
Stability [3]: Stable; Activity (Rattus norvegicus [1]): 30%

With O=S1(=O)N[C@@H]2CCCN2c2c(-c3ccoc3)cc(Cl)cc21 as the compound, how does the Activity (Rattus norvegicus [1]) read?
Its Activity is 74%.

And the Activity (Rattus norvegicus [2])?
The Activity was 245%.
